{"source": "patent US20140011799A1", "about": "(Bristol-Myers Squibb Company, priority 2012, published 2014)"}
{"biological_target": "T1, Endothelial lipase (EL) (Homo sapiens, UniProt Q9Y5X9)", "T1 construct": "HT-1080 cells that were transformed using RAGE technology (Athersys) to overexpress endogenous EL; endogenous in cells; conditioned medium used", "T1 sequence (Q9Y5X9 21-500)": "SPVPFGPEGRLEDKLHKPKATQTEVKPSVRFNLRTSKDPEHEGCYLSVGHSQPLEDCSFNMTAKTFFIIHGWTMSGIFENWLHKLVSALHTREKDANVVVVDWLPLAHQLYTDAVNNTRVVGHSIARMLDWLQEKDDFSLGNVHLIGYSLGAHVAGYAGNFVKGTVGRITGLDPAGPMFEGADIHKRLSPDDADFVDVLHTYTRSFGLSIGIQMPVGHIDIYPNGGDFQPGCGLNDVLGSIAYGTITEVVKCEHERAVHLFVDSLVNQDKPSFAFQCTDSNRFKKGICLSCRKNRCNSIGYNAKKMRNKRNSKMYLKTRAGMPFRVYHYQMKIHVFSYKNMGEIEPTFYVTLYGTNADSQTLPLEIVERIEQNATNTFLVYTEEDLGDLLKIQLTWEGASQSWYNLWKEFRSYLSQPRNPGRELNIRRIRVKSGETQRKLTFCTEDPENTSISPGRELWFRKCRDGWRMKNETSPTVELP", "test": "Endothelial lipase (EL) enzymatic assay, fluorescent substrate A10070 in DMPG vesicles", "format": "biochemical", "settings": "EL from conditioned media of HT-1080 cells; compound preincubated 30 min at 37° C; read-out: EL IC50", "method": "Endothelial lipase (EL) and hepatic lipase (HL) activities were measured using a fluorescent substrate, A10070, (Invitrogen, CA) doped into an artificial vesicle containing DMPG (Avanti Polar Lipids) as the excipient. Vesicles were prepared by combining 571 μL of 29 mM DMPG in a 1:1 mixture of MeOH and CHCl3 with 2000 μL of 1 mM A10070 in a 1:1 mixture of MeOH and CHCl3. The mixture was dried under nitrogen in multiple vials then resuspended in 20 mL total volume of 50 mM HEPES pH 8.0 buffer containing 50 mM NaCl and 0.2 mM EDTA. The sample was allowed to sit at room temperature for 15 min and then was sonicated 3×4 mins on ice with a Branson Sonicator using duty cycle 1. This preparation provides vesicles with a mole fraction of 0.11 for the FRET substrate.\nThe enzymatic assay was measured using 384-well white Optiplates. Each well contained 20 μL of assay buffer (50 mM HEPES pH 8.0, 50 mM NaCl and 1 mM CaCl2) and 0.25 μL of a DMSO solution containing a compound of interest. EL or HL (10 μL) was added and allowed to incubate with the compound for 30 min at 37° C. The source of EL was conditioned media obtained from HT-1080 cells that were transformed using RAGE technology (Athersys) to overexpress endogenous EL, and HL was partially purified from conditioned media obtained from COS cells overexpressing HL. The reaction was started by the addition of 10 μL of a 1:10 dilution of vesicles. The final total reaction volume was […]. The reaction rates were measured on a Gemini plate reader with an excitation wavelength of 490 nm and an emission wavelength of 530 nm. Readings were taken over a period of 60 minutes, and the slope between 300 and 900 secs of the readout was used to calculate the rate of the reaction.", "units": {"IC50": "nM"}}
{"smiles": "CS(=O)(=O)C(c1nnc(CC2SC(=O)NC2=O)o1)c1nc2ccc(-c3ccc(F)nc3)cc2s1", "note": "(stereo not drawn) [Example 3, 5-((5-((6-(6-fluoro-3-pyridinyl)-1,3-benzothiazol-2-yl)(methylsulfonyl)methyl)-1,3,4-oxadiazol-2-yl)methyl)-1,3-thiazolidine-2,4-dione]", "IC50": "< 10"}
{"smiles": "CC1(Cc2nnc(C(c3nc4ccc(-c5ccc(C(=O)N6CCOCC6)cc5)cc4s3)S(=O)(=O)Cc3ccccc3)o2)NC(=O)NC1=O", "note": "(stereo not drawn) [Example 5, 5-((5-((benzylsulfonyl)(6-(4-(morpholine-4-carbonyl)phenyl)benzo[d]thiazol-2-yl)methyl)-1,3,4-oxadiazol-2-yl)methyl)-5-methylimidazolidine-2,4-dione]", "IC50": 30}
{"smiles": "CC1(Cc2nnc(C(c3nc4ccc(-c5ccc(C(=O)N6CCOCC6)cc5)cc4s3)S(=O)(=O)Cc3ccccc3)o2)NC(=O)NC1=O", "note": "(stereo not drawn) [Example 8, 5-((5-((benzylsulfonyl)(6-(4-(morpholine-4-carbonyl)phenyl)benzo[d]thiazol-2-yl)methyl)-1,3,4-oxadiazol-2-yl)methyl)-5-methylimidazolidine-2,4-dione]", "IC50": 62}
{"smiles": "O=S(=O)(O)Cc1nnc(C(c2nc3ccc(-c4ccc(OCc5ccccc5)cc4)cc3s2)S(=O)(=O)CCC(F)(F)F)o1", "note": "(stereo not drawn) [Example 11, (5-((6-(4-(benzyloxy)phenyl)benzo[d]thiazol-2-yl)((3,3,3-trifluoropropyl)sulfonyl)methyl)-1,3,4-oxadiazol-2-yl)methanesulfonic acid]", "IC50": "> 10"}
{"smiles": "CS(=O)(=O)C(c1nnc(CC2NC(=O)NC2=O)o1)c1nc2ccc(-c3ccc(C(=O)N4CCOCC4)cc3)cc2s1", "note": "(stereo not drawn) [Example 16, 5-((5-((methylsulfonyl)(6-(4-(morpholine-4-carbonyl)phenyl)benzo[d]thiazol-2-yl)methyl)-1,3,4-oxadiazol-2-yl)methyl)imidazolidine-2,4-dione]", "IC50": 46}
{"smiles": "Cc1noc(C)c1-c1ccc2nc(C(c3nnc(CC4SC(=O)NC4=O)o3)S(C)(=O)=O)sc2c1", "note": "(stereo not drawn) [Example 19, 5-((5-((6-(3,5-dimethylisoxazol-4-yl)benzo[d]thiazol-2-yl)(methylsulfonyl)methyl)-1,3,4-oxadiazol-2-yl)methyl) thiazolidine-2,4-dione]", "IC50": "< 10"}
{"smiles": "Cc1nn(C)cc1-c1ccc2nc(C(c3nnc(CC4SC(=O)NC4=O)o3)S(C)(=O)=O)sc2c1", "note": "(stereo not drawn) [Example 20, 5-((5-((6-(1,3-dimethyl-1H-pyrazol-4-yl)benzo[d]thiazol-2-yl)(methylsulfonyl)methyl)-1,3,4-oxadiazol-2-yl)methyl) thiazolidine-2,4-dione]", "IC50": "< 10"}
{"smiles": "Cn1cc(-c2ccc3nc(C(c4nnc(CC5SC(=O)NC5=O)o4)S(C)(=O)=O)sc3c2)cn1", "note": "(stereo not drawn) [Example 24, 5-((5-((6-(1-methyl-1H-pyrazol-4-yl)benzo[d]thiazol-2-yl)(methylsulfonyl)methyl)-1,3,4-oxadiazol-2-yl)methyl) thiazolidine-2,4-dione]", "IC50": "< 10"}
{"smiles": "Cc1nccn1-c1nc(-c2ccc3nc(C(c4nnc(CC5SC(=O)NC5=O)o4)S(C)(=O)=O)sc3c2)cs1", "note": "(stereo not drawn) [Example 25, 5-((5-((6-(2-(2-methyl-1H-imidazol-1-yl)thiazol-4-yl)benzo[d]thiazol-2-yl)(methylsulfonyl)methyl)-1,3,4-oxadiazol-2-yl)methyl) thiazolidine-2,4-dione]", "IC50": "< 10"}
{"smiles": "CS(=O)(=O)C(c1nnc(CS(=O)(=O)O)o1)c1nc2ccc(-c3ccccc3)cc2s1", "note": "(stereo not drawn) [Example 28, (5-((methylsulfonyl) (6-phenyl-1,3-benzothiazol-2-yl)methyl)-1,3,4-oxadiazol-2-yl) methanesulfonic acid]", "IC50": "< 10"}
{"smiles": "CC1(Cc2nnc(C(c3nc4ccc(-c5ccccc5)cc4s3)S(C)(=O)=O)o2)NC(=O)NC1=O", "note": "(stereo not drawn) [Example 29, 5-methyl-5-((5-((methylsulfonyl)(6-phenyl-1,3-benzothiazol-2-yl)methyl)-1,3,4-oxadiazol-2-yl)methyl)-2,4-imidazolidinedione]", "IC50": "< 10"}
{"smiles": "CS(=O)(=O)C(c1nnc(CC2NC(=O)NC2=O)o1)c1nc2ccc(-c3ccccc3)cc2s1", "note": "(stereo not drawn) [Example 30, 5-((5-((methylsulfonyl) (6-phenyl-1,3-benzothiazol-2-yl)methyl)-1,3,4-oxadiazol-2-yl)methyl)-2,4-imidazolidinedione]", "IC50": 16}
{"smiles": "CS(=O)(=O)C(c1nnc(CC2SC(=O)NC2=O)o1)c1nc2ccc(-c3ccccc3)cc2s1", "note": "(stereo not drawn) [Example 31, 5-((5-((methylsulfonyl) (6-phenyl-1,3-benzothiazol-2-yl)methyl)-1,3,4-oxadiazol-2-yl)methyl)-1,3-thiazolidine-2,4-dione]", "IC50": "< 10"}
{"smiles": "O=C(OCc1ccccc1)N1CCC(S(=O)(=O)C(c2nnc(CS(=O)(=O)O)o2)c2nc3ccc(-c4ccccc4)cc3s2)CC1", "note": "(stereo not drawn) [Example 32, (5-(((1-((benzyloxy)carbonyl)-4-piperidinyl)sulfonyl)(6-phenyl-1,3-benzothiazol-2-yl)methyl)-1,3,4-oxadiazol-2-yl)methanesulfonic acid]", "IC50": "< 10"}
{"smiles": "CC(C)(C)OC(=O)N1CC(c2nnc(C(c3nc4ccc(-c5ccccc5)cc4s3)S(=O)(=O)Cc3ccccc3)o2)C1", "note": "(stereo not drawn) [Example 33, tert-butyl 3-(5-((benzylsulfonyl) (6-phenylbenzo[d]thiazol-2-yl)methyl)-1,3,4-oxadiazol-2-yl)azetidine-1-carboxylate]", "IC50": 14}
{"smiles": "O=S(=O)(O)Cc1nnc(C(c2nc3ccc(-c4ccccc4)cc3s2)S(=O)(=O)Cc2ccc(F)cc2)o1", "note": "(stereo not drawn) [Example 34, (5-(((4-fluorobenzyl)sulfonyl)(6-phenylbenzo [d]thiazol-2-yl)methyl)-1,3,4-oxadiazol-2-yl)methanesulfonic acid]", "IC50": 131}
{"smiles": "NS(=O)(=O)Cc1nnc(C(c2nc3ccc(-c4ccccc4)cc3s2)S(=O)(=O)CCC(F)(F)F)o1", "note": "(stereo not drawn) [Example 35]", "IC50": "< 10"}
{"smiles": "O=S(=O)(CCC(F)(F)F)NS(=O)(=O)Cc1nnc(C(c2nc3ccc(-c4ccccc4)cc3s2)S(=O)(=O)CCC(F)(F)F)o1", "note": "(stereo not drawn) [Example 36, 3,3,3-trifluoro-N-(((5-((6-phenylbenzo[d]thiazol-2-yl)((3,3,3-trifluoropropyl)sulfonyl)methyl)-1,3,4-oxadiazol-2-yl)methyl)sulfonyl)propane-1-sulfonamide]", "IC50": "< 10"}
{"smiles": "NS(=O)(=O)Cc1nnc(C(c2nc3ccc(-c4ccccc4)cc3s2)S(=O)(=O)Cc2ccccc2)o1", "note": "(stereo not drawn) [Example 37, (5-((benzylsulfonyl)(6-phenylbenzo[d]thiazol-2-yl)methyl)-1,3,4-oxadiazol-2-yl)methanesulfonamide]", "IC50": "< 10"}
{"smiles": "CC(C)(C)OC(=O)N1CC(S(=O)(=O)C(c2nnc(CS(N)(=O)=O)o2)c2nc3ccc(-c4ccccc4)cc3s2)C1", "note": "(stereo not drawn) [Example 38, tert-butyl 3-(((6-phenylbenzo[d]thiazol-2-yl)(5-(sulfamoylmethyl)-1,3,4-oxadiazol-2-yl)methyl)sulfonyl)azetidine-1-carboxylate]", "IC50": "< 10"}
{"smiles": "CN(C)C(=O)Cc1nnc(C(c2nc3ccc(-c4ccccc4)cc3s2)S(=O)(=O)Cc2ccccc2)o1", "note": "(stereo not drawn) [Example 39, 2-(5-((benzylsulfonyl)(6-phenylbenzo[d]thiazol-2-yl)methyl)-1,3,4-oxadiazol-2-yl)-N,N-dimethylacetamide]", "IC50": 190}
{"smiles": "N#CC1(NC(=O)Cc2nnc(C(c3nc4ccc(-c5ccccc5)cc4s3)S(=O)(=O)Cc3ccccc3)o2)CC1", "note": "(stereo not drawn) [Example 40, 2-(5-((benzylsulfonyl)(6-phenylbenzo[d]thiazol-2-yl)methyl)-1,3,4-oxadiazol-2-yl)-N-(1-cyanocyclopropyl)acetamide]", "IC50": "< 10"}
{"smiles": "CN(C)C(=O)CCc1nnc(C(c2nc3ccc(-c4ccccc4)cc3s2)S(=O)(=O)Cc2ccccc2)o1", "note": "(stereo not drawn) [Example 41, 3-(5-((benzylsulfonyl)(6-phenylbenzo[d]thiazol-2-yl)methyl)-1,3,4-oxadiazol-2-yl)-N,N-dimethylpropanamide]", "IC50": 58}
{"smiles": "C[C@]1(Cc2nnc(C(c3nc4ccc(-c5ccccc5)cc4s3)S(C)(=O)=O)o2)OC(=O)NC1=O", "note": "(stereo partly drawn) [Example 42, (5R)-5-Methyl-5-((5-((methylsulfonyl)(6-phenylbenzo[d]thiazol-2-yl)methyl)-1,3,4-oxadiazol-2-yl)methyl)oxazolidine-2,4-dione]", "IC50": "< 10"}
